The numbers were not newly measured in article PMC5019575 (European journal of inorganic chemistry, 2015), which cites them from elsewhere.

Structures are written as SMILES.

The test system of one data set is G4-DFtet. The note with it: O2 (air), diiron protein, 100 mM HEPES/100 mM NaCl pH 7.0.
In the next data set the target is T1, di-Fe^III-DF3 (synthetic construct, UniProt Z9XD63LK24).
T1 sequence (Z9XD63LK24 2-49): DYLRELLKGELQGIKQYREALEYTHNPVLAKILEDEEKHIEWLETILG
The data set is described as follows: initial rates of oxidation, Lineweaver-Burk. It counts as biochemical. The note with it: O2 (air), diferric protein, 100 mM HEPES/100 mM NaCl pH 7.0.

A word on the Km: it is the substrate concentration at which the rate is half of its maximum. With `Nc1ccc(O)cc1` [4-AP, 4-aminophenol], the Km with G4-DFtet was 830 ± 60 µM. With `Nc1ccc(N)cc1` [PPD, p-phenylenediamine], the Km on di-Fe^III-DF3 is 8870 ± 2580 µM.

As to `CC(C)(C)c1cc(O)c(O)c(C(C)(C)C)c1` [3,5-DTBC, 3,5-di-tert-butylcatechol], at di-Fe^III-DF3, the Km was 2090 ± 310 µM.
